Source: ChEMBL document CHEMBL6103569, “Discovery of novel fluorine-containing parthenolide analogues as potential antitumor agents” (Eur J Med Chem, 2025)

What was measured:
Format in all cases: functional, cell-based
[1] = Antiproliferative activity against human NCI-H820 cells assessed as inhibition of cell growth incubated for 72 hrs by MTT assay
Huh-7 = test: Antiproliferative activity against human Huh-7 cells assessed as inhibition of cell growth incubated for 72 hrs by MTT assay
PANC-1 = test: Antiproliferative activity against human PANC-1 cells assessed as inhibition of cell growth incubated for 72 hrs by MTT assay

SMILES | IC50 ([1]; nci-h820) | IC50 (Huh-7; huh-7) | IC50 (PANC-1; panc-1) | IC50 ([1]; Homo sapiens, NCI-H820, 72 h) | IC50 (Huh-7; Homo sapiens, Huh-7, 72 h) | IC50 (PANC-1; Homo sapiens, PANC-1, 72 h)
CN1CCN(CC2C(=O)O[C@H]3[C@H]2CC/C(CC(F)(F)F)=C\CC[C@@]2(C)O[C@@H]32)CC1 (stereo partly drawn) | 22.5 µM | 14.2 µM | 12.7 µM | – | – | –
CCCNCC1C(=O)O[C@H]2[C@H]1CC/C(CC(F)(F)F)=C\CC[C@@]1(C)O[C@@H]21 (stereo partly drawn) | – | – | – | 4.39 µM | 4.32 µM | 4.59 µM
C[C@@]12CC/C=C(/CC(F)(F)F)CC[C@H]3C(CN4CCC(O)CC4)C(=O)O[C@@H]3[C@@H]1O2 (stereo partly drawn) | – | – | – | 6.32 µM | 4.38 µM | 5.79 µM
C[C@@]12CC/C=C(/CC(F)(F)F)CC[C@H]3C(CN4CCC[C@H]4CO)C(=O)O[C@@H]3[C@@H]1O2 (stereo partly drawn) | – | – | – | 4.53 µM | 3.67 µM | 4.57 µM
C=C1C(=O)O[C@H]2[C@H]1CC/C(COC(F)F)=C\CC[C@@]1(C)O[C@@H]21 | – | – | – | 4.32 µM | 3.18 µM | 3.31 µM
C=C1C(=O)O[C@H]2[C@H]1CC/C(CSC#N)=C\CC[C@@]1(C)O[C@@H]21 | – | – | – | 2.04 µM | 1.5 µM | 1.35 µM
CN(C)CC1C(=O)O[C@H]2[C@H]1CC/C(CC(F)(F)F)=C\CC[C@@]1(C)O[C@@H]21 (stereo partly drawn) | 4.38 µM | 3.08 µM | 4.38 µM | – | – | –
CCCN(C)CC1C(=O)O[C@H]2[C@H]1CC/C(CC(F)(F)F)=C\CC[C@@]1(C)O[C@@H]21 (stereo partly drawn) | – | – | – | 5.52 µM | 3.13 µM | 3.62 µM
C[C@@]12CC/C=C(/CC(F)(F)F)CC[C@H]3C(CN4CCCC4)C(=O)O[C@@H]3[C@@H]1O2 (stereo partly drawn) | 6.44 µM | 4.1 µM | 5.19 µM | – | – | –
C=C1C(=O)O[C@H]2[C@H]1CC/C(CO)=C\CC[C@@]1(C)O[C@@H]21 | – | – | – | 13.3 µM | 10.1 µM | 15.6 µM
C[C@@]12CC/C=C(/CC(F)(F)F)CC[C@H]3C(CN4CCC[C@@H]4CO)C(=O)O[C@@H]3[C@@H]1O2 (stereo partly drawn) | – | – | – | 3.11 µM | 3.29 µM | 3.66 µM
